This is an account of results in patent US9637501B2, “Pyridin-3-yl acetic acid macrocycles as inhibitors of human immunodeficiency virus replication” (priority 2014, dated 2017).

For series [1] the following is noted: rcm bond, Hoveyda-Grubbs catalyst 2nd generation, 1,2-dichloroethane, 3 steps.
Series [2] deals with recombinant NL-RLuc virus (NL4-3 with Renilla Luciferase gene) in MT-2 cells. The experiment in a line: Inhibition of HIV replication (NL-RLuc virus, luciferase readout in MT-2 cells). Type of series: cell-based. The conditions noted are these: 5 days of incubation, 10% FBS. From the text: Inhibition of HIV Replication:
A recombinant NL-RLuc proviral clone was constructed in which a section of the nef gene from NL4-3 was replaced with the Renilla Luciferase gene. This virus is fully infectious and can undergo multiple cycles of replication in cell culture. In addition, the luciferous reporter provides a simple and easy method for quantitating the extent of virus growth and consequently, the antiviral activity of test compounds. The plasmid pNLRLuc contains the proviral NL-Rluc DNA cloned into pUC18 at the PvuII site. The NL-RLuc virus was prepared by transfection of 293T cells with the plasmid pNLRLuc. Transfections were performed using the LipofectAMINE PLUS kit from Invitrogen (Carlsbad, Calif.) according to the manufacturer and the virus generated was titered in MT-2 cells. For susceptibility analyses, the titrated virus was used to infect MT-2 cells in the presence of compound, and after 5 days of incubation, cells were processed and quantitated for virus growth by the amount of expressed luciferase. Assay media was RPMI 1640 supplemented with 10% heat inactivated fetal bovine serum (FBS), 100 units/ml penicillin G/100 units/ml streptomycin, 10 mM HEPES buffer pH 7.55 and 2 mM L-glutamine. The results from at least 2 experiments were used to calculate the EC50 values. Luciferase was quantitated using the Dual Luciferase kit from Promega (Madison, Wis.). Susceptibility of viruses to compounds was determined by incubation in the presence of serial dilutions of the compound. The 50% effective concentration (EC50) was calculated by using the exponential form of the median effect equation where (Fa)=1/[1+(ED50/drug conc.)^m] (Johnson V A, Byington R T. Infectivity Assay. In Techniques in HIV Research. ed. Aldovini A, Walker B D. 71-76. New York: Stockton Press. 1990).

Read-outs that look alike come from different tables or passages of the source.

On to `Cc1nc(C)c([C@H](OC(C)(C)C)C(=O)O)c2c1-c1ccc(cc1)OC(c1ccc(Cl)cc1)CCCCOC1(C)CCN2CC1` (stereo partly shown), for which, in series [1] (from C=CCOC1(C)CCN(c2c(-c3ccc(OC(CC=C)c4ccc(Cl)cc4)cc3)c(C)nc(C)c2[C@H](OC(C)(C)C)C(=O)OCC)CC1, 6.25 mM, 70.0 °C, 0.5 h), the ring closure, yield of all isomers is 59.1%. In turn, `Cc1nc(C)c([C@H](OC(C)(C)C)C(=O)O)c2c1-c1ccc(cc1)OC(c1ccccc1)CCCCOC1(C)CCN2CC1` (stereo partly shown) returned a ring closure, yield of all isomers in series [1] (from C=CCOC1(C)CCN(c2c(-c3ccc(OC(CC=C)c4ccccc4)cc3)c(C)nc(C)c2[C@H](OC(C)(C)C)C(=O)OCC)CC1, 70.0 °C, 1.0 h) of 63.8%. For orientation: EC50 means the concentration needed to bring the measured effect to its halfway point. On to `Cc1nc(C)c([C@H](OC(C)(C)C)C(=O)O)c2c1-c1ccc(cc1)OC(c1ccccc1)CCCCOC1(C)CCN2CC1` (single isomer, unassigned) [Example 3], for which the EC50 in series [2] was found to be 854 nM. The same measure, in the same setting: as for `Cc1nc(C)c([C@H](OC(C)(C)C)C(=O)O)c2c1-c1ccc(cc1)OC(c1ccccc1)CCCCOC1(C)CCN2CC1` (single isomer, unassigned) [Example 4], the figure is 349 nM.

Turning to `Cc1nc(C)c([C@H](OC(C)(C)C)C(=O)O)c2c1-c1ccc(cc1)OC(c1ccc(Cl)cc1)CCCCOC1(C)CCN2CC1` (single isomer, unassigned) [Example 5], the concentration giving a half-maximal response (EC50) in series [2] (Renilla, NL43, 120 h) came to 466 nM. With `Cc1nc(C)c([C@H](OC(C)(C)C)C(=O)O)c2c1-c1ccc(cc1)OC(c1ccc(Cl)cc1)CCCCOC1(C)CCN2CC1` (single isomer, unassigned) [Example 6], the EC50 in series [2] came out at 496 nM. On to `Cc1cc(CN2CCCCCCOC3(C)CCN(CC3)c3c(c(C)nc(C)c3[C@H](OC(C)(C)C)C(=O)O)-c3ccc(cc3)C2)ccc1F` [Example 1, (2S)-2-(tert-Butoxy)-2-{13-[(4-fluoro-3-methylphenyl)methyl]-4,6,21-trimethyl-20-oxa-1,5,13-triazatetracyclo[19.2.2.2^8,11.0^2,7]heptacosa-2,4,6,8,10,26-hexaen-3-yl}acetic acid], for which the EC50 in series [2] (Renilla, NL43, 120 h) amounted to 87 nM. In series [1] (from C=CCCCN(Cc1ccc(-c2c(C)nc(C)c([C@H](OC(C)(C)C)C(=O)OCC)c2N2CCC(C)(OCC=C)CC2)cc1)Cc1ccc(F)c(C)c1, 70.0 °C, 0.83 h), the ring closure, yield of all isomers is 58.9%. For the compound `Cc1cc(CN2CCCCCOC3(C)CCN(CC3)c3c(c(C)nc(C)c3[C@H](OC(C)(C)C)C(=O)O)-c3ccc(cc3)C2)ccc1F` [Example 2, (2S)-2-(tert-Butoxy)-2-{13-[(4-fluoro-3-methylphenyl)methyl]-4,6,20-trimethyl-19-oxa-1,5,13-triazatetracyclo[18.2.2.2^8,11.0^2,7]hexacosa-2,4,6,8,10,25-hexaen-3-yl}acetic acid], the EC50 in series [2] (Renilla, NL43, 120 h) stood at 249 nM. Further, in series [1] (from C=CCOC1(C)CCN(c2c(-c3ccc(CN(CC/C=C\CC)Cc4ccc(F)c(C)c4)cc3)c(C)nc(C)c2[C@H](OC(C)(C)C)C(=O)OCC)CC1, 4.35 mM, 75.0 °C, 1.33 h), the ring closure, yield of all isomers stood at 17.2%.
